Read-outs that look alike come from different tables or passages of the source.
Columns and labels:
[1] = tested on: HCT116-C9-C4; experiment: Cell growth inhibition assay (MTT, 72 h) on E7070-resistant HCT116-C9-C4; type: cell-based; settings: Homo sapiens
Description: (§1) An E7070-resistant cell line was used to assess the antiproliferative activities of E7820, LY186641, LY295501, LY-ASAP and CQS. HCT116-C9 was a substrain separated from human colon cancer-derived HCT116 (American Type Culture Collection, Manassas, Va., U.S.A.). This HCT116-C9 was cultured in the presence of E7070 while increasing the E7070 concentration by degrees, thereby obtaining E7070-resistant substrains HCT116-C9-C1 and HCT116-C9-C4 (Molecular Cancer Therapeutics, 2002, 1, 275-286).
(§2) Three cell lines, i.e., HCT116-C9, HCT116-C9-C1 and HCT116-C9-C4, were each seeded at 3000 cells/well onto a 96-well microplate (flat bottom) (50 μl/well). Twenty-four hours later, they were added with a 3-fold dilution series of each compound (50 μl/well). Seventy-two hours later, the antiproliferative activities were assessed by MTT method (Mossmann T., J. Immunol. Methods, 1983, 65, 55-63). The 50% growth inhibitory concentrations to the cancer cells were obtained by a least square method.
(§3) In exactly the same manner as in Example 6, an E7070-resistant cell line was used to assess the antiproliferative activities of LY573636 as well as those of E7070.

[2] = tested on: HCT116-C9-C1; experiment: Cell growth inhibition assay (MTT, 72 h) on E7070-resistant HCT116-C9-C1; type: cell-based; settings: Homo sapiens
Description: as §1, §2, §3

[3] = tested on: HCT116-C9; experiment: Cell growth inhibition assay (MTT, 72 h) on HCT116-C9; type: cell-based; settings: Homo sapiens
Description: as §1, §2, §3

[4] = tested on: human colon cancer cell line (Colo320DM); experiment: Subcutaneous transplant model of human colon cancer cell line Colo320DM, E7070 and Bevacizumab (Example 8); type: in vivo; settings: Colo320DM s.c. in nude mouse, E7070 40 mg/kg i.v. Days 1 to 5, Bevacizumab 25 mg/kg i.v. Days 1, 5, 8 and 12; for Relative Tumor Volume (RTV) Average ± standard deviation: Day 23
Description: (§4) Human colon cancer cell line Colo320DM (purchased from ATCC) was cultured in RPMI1640 (containing 10% FBS) in a 5% carbon dioxide incubator to about 80% confluence, and the cells were collected with trypsin-EDTA. Using Hanks balanced solution, 5×10^7 cells/mL suspension was prepared, and 0.1 mL each of the resulting cell suspension was subcutaneously transplanted to a nude mouse at the side of its body.
Following transplantation, E7070 (40 mg/kg/day) and Bevacizumab (25 mg/kg/day) were administered alone or in combination when the average tumor volume became 259 mm^3.
E7070 alone was intravenously administered once a day for 5 days (on Days 1 to 5). On the other hand, Bevacizumab alone was intravenously administered twice a week for 2 weeks (on Days 1, 5, 8 and 12).
For the combinational use group, E7070 was intravenously administered on Days 1 to 5 while Bevacizumab was intravenously administered on Days 1, 5, 8 and 12.
The major and minor axes of tumors were measured twice a week from the initiation of administration with Digimatic caliper (Mitsutoyo), and tumor volumes were calculated according to the following formula.
(§5) Tumor Volume TV=Major axis of tumor (mm)×(Minor axis of tumor)^2 (mm^2)/2
The following two values were used for judging an anti-tumor effect.
Tx4: time (days) required for the tumor to grow to four times the initial tumor volume
RTV: Relative tumor volume (RTV)* on Day 23
*RTV=Tumor volume on Day 23/Initial tumor volume on Day 1

[5] = tested on: human colon cancer cell line (Colo320DM); experiment: Subcutaneous transplant model of human colon cancer cell line Colo320DM, E7820 and Bevacizumab (Example 2); type: in vivo; settings: Colo320DM s.c. in nude mouse; E7820 200 mg/kg twice a day orally 3 weeks; Bevacizumab 25 mg/kg twice a week i.v. 3 weeks
Description: Human colon cancer cell line Colo320DM (purchased from Dainippon Pharmaceutical) was cultured in RPMI1640 (containing 10% FBS) in a 5% carbon dioxide incubator at 37° C. to about 80% confluence, and the cells were collected with trypsin-EDTA. Using a phosphate buffer containing 50% matrigel, 5×10^7 cells/mL suspension was prepared, and 0.1 mL each of the resulting cell suspension was subcutaneously transplanted to a nude mouse at the side of its body. Seven days after the transplantation, administration of E7820 (200 mg/kg, twice a day, for 3 weeks, orally administered) and administration of Bevacizumab (25 mg/kg, twice a week, for 3 weeks, intravenously administered) were initiated. The major and minor axes of tumors were measured with Digimatic caliper (Mitsutoyo), and tumor volumes and relative tumor volumes were calculated according to the following formulae.
as §5
(§6) Relative Tumor Volume RTV=Tumor volume on measurement day/Tumor volume on the first administration day

[6] = tested on: human renal cancer cell line (786-O); experiment: Subcutaneous transplant model of human renal cancer cell line 786-O, E7820 and Bevacizumab (Example 9); type: in vivo; settings: 786-O s.c. in nude mouse; E7820 200 mg/kg twice a day orally 2 weeks; Bevacizumab 25 mg/kg twice a week i.v. 2 weeks
Description: as §4, with “renal” for “colon”, “786-0 (obtained” for “Colo320DM (purchased”, “incubator at 37° C.” for “incubator”, “a phosphate buffer containing 50% matrigel, 1×10^8” for “Hanks balanced solution, 5×10^7”
Seven days after the transplantation, E7820 and Bevacizumab were administered alone or in combination. E7820 was orally administered at 200 mg/kg twice a day for 2 weeks while Bevacizumab was intravenously administered at 25 mg/kg twice a week for 2 weeks.
The major and minor axes of tumors were measured with Digimatic caliper (Mitsutoyo), and tumor volumes and relative tumor volumes were calculated according to the following formulae.
as §5, §6

[7] = Example 6, read-out: antiproliferative activity, IC50
[8] = Example 7, read-out: antiproliferative activity, IC50

Molecule | IC50 [1, 7] | IC50 [2, 7] | IC50 [3, 7] | IC50 [1, 8] | IC50 [2, 8] | IC50 [3, 8] | Tx4 Average ± standard deviation (time required for the tumor to grow to four times the initial tumor volume) [4] | Relative Tumor Volume (RTV) Average ± standard deviation [4] | Relative tumor volume on Day 22 Average ± standard deviation [5] | Relative tumor volume on Day 22 Average ± standard deviation [6]
Nc1ccc(S(=O)(=O)Nc2cnc3c(Cl)cccc3n2)cc1 [CQS, 2-sulfanylamide-5-chloroquinoxaline] | 517 µM | 634 µM | 1.73 µM |  |  |  |  |  |  | 
O=C(NS(=O)(=O)c1ccc(Cl)cc1)c1ccc(Cl)cc1Cl [LY-ASAP, N-(2,4-dichlorobenzoyl)-4-chlorophenylsulfonamide] | 90.3 µM | 113 µM | 1.63 µM |  |  |  |  |  |  | 
Bevacizumab: human anti-VEGF (Vascular Endothelial Growth Factor) monoclonal antibody, obtained by purchasing Avastin from Genentech |  |  |  |  |  |  | 26.3 ± 2.8 days | 2.84 ± 0.68 | 5.1 ± 0.8 | 1.8 ± 0.2

Now from value to molecule, other results behind:

IC50 [1, 7] | IC50 [2, 7] | IC50 [3, 7] | IC50 [1, 8] | IC50 [2, 8] | IC50 [3, 8] | Molecule | Tx4 Average ± standard deviation (time required for the tumor to grow to four times the initial tumor volume) [4] | Relative Tumor Volume (RTV) Average ± standard deviation [4] | Relative tumor volume on Day 22 Average ± standard deviation [5] | Relative tumor volume on Day 22 Average ± standard deviation [6]
26.9 µM | 31.9 µM | 0.127 µM | 28 µM | 32.7 µM |  | NS(=O)(=O)c1ccc(S(=O)(=O)Nc2cccc3c(Cl)c[nH]c23)cc1 [E7070, N-(3-chloro-1H-indole-7-yl)-4-sulfamoylbenzenesulfonamide] | 27.0 ± 3.4 days | 2.70 ± 0.97 |  | 
52.8 µM | 51.2 µM | 0.08 µM |  |  |  | Cc1ccc(NS(=O)(=O)c2cccc(C#N)c2)c2[nH]cc(C#N)c12 [E7820, N-(3-cyano-4-methyl-1H-indole-7-yl)-3-cyanobenzenesulfonamide] |  |  | 6.1 ± 1.8 | 0.6 ± 0.1
138 µM | 134 µM | 33.6 µM |  |  |  | O=C(Nc1ccc(Cl)cc1)NS(=O)(=O)c1ccc2c(c1)CCC2 [LY186641, N-[[(4-chlorophenyl)amino]carbonyl]-2,3-dihydro-1H-indene-5-sulfonamide] |  |  |  | 
110 µM | 111 µM | 10.9 µM |  |  |  | O=C(Nc1ccc(Cl)c(Cl)c1)NS(=O)(=O)c1ccc2c(c1)CCO2 [LY295501, N-[[(3,4-dichlorophenyl)amino]carbonyl]-2,3-dihydrobenzofuran-5-sulfonamide] |  |  |  | 
 |  |  | 240 µM | 264 µM | 5.11 µM | O=C(NS(=O)(=O)c1ccc(Br)s1)c1ccc(Cl)cc1Cl [LY573636, N-(2,4-dichlorobenzoyl)-5-bromothiophene-2-sulfonamide] |  |  |  | 

From US20080286282A1, “Novel Use of Sulfonamide Compound in Combination with Angiogenesis Inhibitor” (Eisai R & D Management Co., Ltd., priority 2005, published 2008)
